Earlier results on two compounds are cited in patent US11311620B2, “Neoadjuvant therapy for bladder cancer” (PHOTOCURE ASA, priority 2016, dated 2022).

One series has as its system MIBC. The note with it: patients who had cystectomy; HAL-guided TUR prior to cystectomy; 268 consecutive patients, retrospective.
Another series deals with NMIBC. Conditions: patients with NMIBC.
The subject of the next series is bladder cancer. Conditions: neoadjuvant cisplatin-containing chemotherapy.

Each structure is given as a SMILES string.

Take `CCCCCCOC(=O)CCC(=O)CN` [HAL, n-hexyl 5-amino-4-oxo-pentanoate]: in the series with MIBC, the “3-year overall survival (OS)” value is recorded as 65.0% and the “3-year recurrence-free survival (RFS)” value is recorded as 69.8%. Further, in the series with NMIBC, the “rate of residual tumor after TUR” value is “reduced the rate of residual tumor” and the “recurrence free survival (RFS) rates compared to white light TUR alone” value was “superior recurrence free survival (RFS) rates”. For the same compound, the “detection of papillary tumors and flat carcinoma-in-situ (CIS) lesions” value in the series with NMIBC (compared to white light alone) is recorded as “improved detection”.
Consider `N.N.[Cl][Pt][Cl]` [cisplatin], for which the “absolute improvement in survival at 5 years” value with bladder cancer was 5%.
